US20250302808A1, “DEXMEDETOMIDINE TREATMENT REGIMENS” (BioXcel Therapeutics, Inc., priority 2021, published 2025)
Read-outs that look alike come from different tables or passages of the source.

Legend:
[1] = Method: This was an adaptive Phase Ib/2 trial design. It was a randomized, double-blind, placebo-controlled, multiple ascending dose study assessing efficacy, pharmacokinetics, safety and tolerability of dexmedetomidine hydrochloride dosing in adult (65 years old and older) males and females with acute agitation associated with dementia.
The drug film was retained in the sublingual cavity until dissolved. Participants were also evaluated for local irritation around the area where the film was placed. Efficacy and safety assessments were conducted periodically before and after dosing. The next cohort was dosed after completing accrual of most prior panels, in accord with regular ongoing periodic safety and PK review as eligible subjects were assigned, dosed, and data became available.
Blood samples (4 mL) were collected at 0.5, 1, 2, 4, 8- and 24-hours post-dose per Schedule of Events (Table 9A).
All pharmacokinetic parameters were calculated using non-compartmental analysis using WinNonlin. Actual sampling times were used in all pharmacokinetic analyses. […] Other PK analyses might be performed as appropriate.
Plasma samples were collected at 0.5, 1, 2, (2.5 in re-dose subjects), 4 and 8 hr.

[2] = tested on: opioid withdrawal symptoms
Method: (§1) • COWS and SOWS scores during Days 6-12. COWS and SOWS scores on Days 6-12 were analyzed using a mixed-effects, repeated-measures model. […] Kaplan-Meier estimates were used to generate survival curves for each treatment group. […] Differences in mean agitation and sedation were compared between the treatment groups using the same mixed-effects, repeated-measures model described above.

opioid withdrawal = tested on: opioid withdrawal
Method: as §1
Kaplan-Meier estimates were also used to generate survival curves over time in each treatment group. Logistic regression model was used to compare the dexmedetomidine hydrochloride oromucosal film and placebo groups on the numbers of subjects dropping out after opioid discontinuation.

[3] = remark: listed apart in the source
Method: Blood samples (4 ml) were collected for pharmacokinetic analysis on inpatient Study Days 6 and 12 at 0, 2, 6, and 12 hours after the first dose of dexmedetomidine hydrochloride oromucosal film on Study Days 6 and 12.
Plasma concentration data for dexmedetomidine were analyzed by a popPK approach and reported separately. The plasma concentration data from this study were combined with PK data from other studies to develop the population PK model. The model was used to estimate exposure measures in subjects in this study through a modeling and simulation approach. • Interim data: The demographic data and baseline characteristics are given in Table 15C.

[4] = tested on: elderly dementia patients
Method: AEs, clinical laboratory tests, 12-lead ECG, Johns Hopkins Fall Risk Assessment score, and vital signs were monitored, and all observed and volunteered AEs were recorded. Blood pressure, heart rate and ECG were completed per schedule of assessments. Any abnormal clinically significant (investigator determined) vital sign measurement, clinical laboratory test, physical examination finding, or ECG parameter were repeated, until the value returned to baseline (or within normal limits) or the investigator deemed the abnormality to be of no clinical significance. Orthostatic assessments followed the CDC guidelines for the elderly (e.g. blood pressure upon standing for 1, 3 and 5 minutes). Safety and tolerability assessments were continued until the morning of Day 2 and Day 3 and were repeated on Day 7=2 days.
Safety was assessed during the study by the monitoring and recording of AEs, clinical laboratory test results (hematology, biochemistry, and urinalysis), vital sign measurements (systolic and diastolic blood pressures, heart rate measured as pulse, respiratory rate, and temperature), ECG, and physical examination findings.
Adverse events (AEs) were characterized by type, severity, seriousness, and relationship to treatment. Adverse events were coded by preferred term and system organ class using MedDRA version 20.0.

[5] = tested on: subjects undergoing opioid withdrawal; settings: Fishman et al. 2019, cited from earlier work

| SMILES | exposure levels in elderly dementia patients vs schizophrenia patients ([1]; Table 9E) | AUC higher in dementia patients than in schizophrenia (and bipolar disorder) patients ([1]; same dose) | Cmax higher in dementia patients than in schizophrenia (and bipolar disorder) patients ([1]; same dose) | subjective rating of insomnia on SOWS scale ([2]; Day 7, about 240 μg twice daily) | ratings of anxiety or irritability on COWS scale ([2]; Day 8, about 240 μg twice daily) | retention rate (opioid withdrawal; Day 6, 120 μg dose) | retention rate (opioid withdrawal; Day 6, 180 μg dose) | plasma concentration as dose increased ([3]; 30 μg to 240 μg, days 6 and 12) | mean plasma concentrations between 2-hour and 12-hour timepoints ([3]; all doses) | consequences of doses higher than about 90 μg [4] | Adverse Event Bradycardia ([5]; 2.16 mg (N = 229)) | Adverse Event Dizziness ([5]; 2.16 mg (N = 229)) | Adverse Event Orthostatic hypotension ([5]; 2.16 mg (N = 229)) | Adverse Event Somnolence ([5]; 2.16 mg (N = 229)) | Adverse Event Bradycardia ([5]; 2.88 mg (N = 229)) | Adverse Event Dizziness ([5]; 2.88 mg (N = 229)) | Adverse Event Orthostatic hypotension ([5]; 2.88 mg (N = 229)) | Adverse Event Somnolence ([5]; 2.88 mg (N = 229)) |
| --- | --- | --- | --- | --- | --- | --- | --- | --- | --- | --- | --- | --- | --- | --- | --- | --- | --- | --- |
| Cc1cccc([C@H](C)c2cnc[nH]2)c1C [dexmedetomidine, (+) 4-(S)-[1-(2,3-dimethylphenyl)ethyl]-1H-imidazole] | higher exposure levels | about 55% | about 38% | significant reduction | significant reduction | at least 40% | at least 50% | dose dependent increases | declined over time | negative consequences | – | – | – | – | – | – | – | – |
| CC(Oc1c(Cl)cccc1Cl)C1=NCCN1 (stereo not drawn) [lofexidine] | – | – | – | – | – | – | – | – | – | – | 54 (24) n (%) | 44 (19) n (%) | 67 (29) n (%) | 25 (10.9) n (%) | 70 (32) n (%) | 51 (23.0) n (%) | 94 (42) n (%) | 29 (13.1) n (%) |
